Values of other authors as cited in patent US20140161813A1, “METHODS FOR THE DIAGNOSIS, TREATMENT AND MONITORING OF CANCER” (priority 2012, published 2014).

What was measured:
[1] = system: spontaneous tumors in dogs (thyroid carcinoma, malignant peripheral nerve sheath tumor, anal gland adenocarcinoma, spinal meningioma)
[2] = system: human tumor 60 cell line screen; settings: colon, ovarian and breast carcinomas and central nervous system tumors

nitrosylcobalamin [NO-Cbl]
systemic or local toxicity ([1]; case study in dogs with spontaneous tumors): no evidence of systemic or local toxicity
dogs in which the tumor was completely eliminated ([1]; extended follow-up, daily NO-Cbl treatment ranging in duration from 6 to 15 months): 3 of 4
decrease in tumor size ([1]; remaining 1 of 4 dogs, daily NO-Cbl treatment over the course of 6 months): 77%
antigrowth effects, tumor types most responsive [2]: colon, ovarian and breast carcinomas as well as central nervous system tumors were most responsive
